Data on 25 compounds can be found in patent US20230140276A1, “TRICYCLIC COMPOUNDS, PREPARATION METHOD AND MEDICAL USE THEREOF” (HEFEI INSTITUTE OF PHARMACEUTICAL INDUSTRY CO., LTD., priority 2020, published 2023).

SMILES strings stand for the structures.

By IC50 is commonly meant the midpoint of a concentration-inhibition curve. Low values mean greater potency, high ones weaker potency.

The target in series [1] is hERG potassium channel (Homo sapiens, UniProt Q12809). Put plainly: hERG potassium channel activity test. It is filed as biochemical.
Chain of hERG potassium channel (Q12809 whole entry): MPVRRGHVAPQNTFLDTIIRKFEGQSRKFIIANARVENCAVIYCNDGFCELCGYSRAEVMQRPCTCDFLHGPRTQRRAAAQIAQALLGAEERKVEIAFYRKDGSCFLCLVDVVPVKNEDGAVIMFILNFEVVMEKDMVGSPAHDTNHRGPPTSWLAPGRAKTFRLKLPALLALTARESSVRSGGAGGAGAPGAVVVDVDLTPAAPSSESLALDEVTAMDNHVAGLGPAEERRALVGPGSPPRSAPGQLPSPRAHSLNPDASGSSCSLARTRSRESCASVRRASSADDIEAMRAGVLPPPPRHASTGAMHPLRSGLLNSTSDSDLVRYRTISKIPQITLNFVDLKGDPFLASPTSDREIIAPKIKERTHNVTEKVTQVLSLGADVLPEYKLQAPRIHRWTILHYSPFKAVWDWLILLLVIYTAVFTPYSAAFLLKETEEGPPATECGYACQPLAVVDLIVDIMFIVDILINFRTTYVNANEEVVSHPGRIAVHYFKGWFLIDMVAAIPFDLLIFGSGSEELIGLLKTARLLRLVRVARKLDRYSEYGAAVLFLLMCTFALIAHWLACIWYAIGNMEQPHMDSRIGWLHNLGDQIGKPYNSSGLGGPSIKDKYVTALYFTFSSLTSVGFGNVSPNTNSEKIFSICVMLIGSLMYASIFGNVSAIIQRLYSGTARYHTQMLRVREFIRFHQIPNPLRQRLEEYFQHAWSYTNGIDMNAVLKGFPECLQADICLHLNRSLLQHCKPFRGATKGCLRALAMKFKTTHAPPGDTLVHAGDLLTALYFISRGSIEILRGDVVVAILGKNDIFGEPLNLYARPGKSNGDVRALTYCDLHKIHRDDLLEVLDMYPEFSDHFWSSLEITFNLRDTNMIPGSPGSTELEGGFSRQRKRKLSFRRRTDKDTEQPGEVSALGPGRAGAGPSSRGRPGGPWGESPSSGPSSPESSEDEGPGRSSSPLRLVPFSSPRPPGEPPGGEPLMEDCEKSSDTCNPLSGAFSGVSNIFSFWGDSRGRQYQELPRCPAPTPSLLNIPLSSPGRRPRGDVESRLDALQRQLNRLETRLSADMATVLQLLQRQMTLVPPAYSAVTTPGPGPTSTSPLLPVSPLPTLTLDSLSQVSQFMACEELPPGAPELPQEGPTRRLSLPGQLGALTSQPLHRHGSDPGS
Series [2] relates to pilocarpine-induced saliva secretion. As to the kind of experiment: Pilocarpine-induced salivation in rats. The conditions noted are these: 10 mg/kg intragastric; pilocarpine 1 mg/kg i.p. 15 minutes later; saliva collected 10 minutes.
Description: Rats in each group were given corresponding drugs by intragastric administration. 15 minutes later, pilocarpine (1 mg/kg, dissolved in physiological saline) was injected intraperitoneally to induce saliva secretion. The rat was immediately anesthetized by intraperitoneal injection of 10% chloral hydrate. After the rat was anesthetized, the residual saliva in the oral cavity was taken out with a cotton ball in that the weighed cotton ball (M1) was placed in the oral cavity (two under the tongue and one for each on both sides). The cotton ball was taken out 10 minutes later and the weight of the cotton ball (M2) was immediately measured.
Inhibition rate=Saliva secretion in drug administration group/Saliva secretion in model group×100%
Series [3] relates to histamine-induced skin vascular permeability. Put plainly: Inhibitory effect on histamine-induced vascular permeability in mice. It is filed as in vivo, ICR mice. The conditions noted are these: Mus musculus, po; 5 mg/kg intragastric 1 hour before modeling; histamine phosphate 1 ug/0.1 mL; Evans Blue absorbance at 610 nm; read-out: Inhibition rate (%). As for the experimental part: Intragastric administration was performed 1 hour before modeling. The model group was given the corresponding solvent. […] 10% sodium sulfide was used to depilate the back of mice (3 cm×3 cm). The mice were injected 1 ug/0.1 mL of histamine phosphate physiological saline solution into the depilation site one hour after the administration, and injected 0.25% Evans Blue solution 4 ml/kg from the tail vein immediately after the injection. After 30 minutes, the mice were dislocated and sacrificed. The blue-stained part of the skin was removed and perforated (diameter 15 mm), cut into pieces and soaked in 1 ml of acetone-saline (7:3) solution. After 24 h, it was centrifuged (3000 r/min, 10 min) to take the supernatant. The absorbance of the sample was measured with an ultraviolet spectrophotometer at a wavelength of 610 nm and a blank zero calibration with acetone-physiological saline solution.

Take `CC(C)(C(=O)O)c1ccc(CN2CCC(=C3c4ccc(Cl)cc4CCc4cccnc43)CC2)cc1` [Example 1, 2-(4-((4-(8-chloro-5,6-dihydro-11H-benzo[5,6]cyclohept[1,2-b]pyridine-11-enyl)piperidine-1-yl)methyl)phenyl)-2-methylpropionic acid]: the IC50 in series [1] was greater than 30 µM. In addition, the “Inhibition rate (%)” value in series [2] was 18.53%. Also, the inhibition in vivo at 5 mg/kg in series [3] was 52.2%.
On to `CC(C)(C(=O)O)c1ccc(CCCN2CCC(=C3c4ccc(Cl)cc4C(O)Cc4cccnc43)CC2)cc1` (stereo not shown) [Example 19], for which the “Inhibition rate (%)” value in series [2] is on record as 11.83%. The inhibition in vivo at 5 mg/kg in series [3] was found to be 53.3%.
For `CC(C)(C(=O)O)c1ccc(CCN2CCC(=C3c4ccc(Cl)cc4CCc4cccnc43)CC2)cc1` [Example 2, 2-(4-(2-(4-(4-(8-chloro-5,6-dihydro-11H-benzo[5,6]]cyclohept[1,2-b]pyridine-11-enyl)piperidin-1-yl)ethyl)phenyl)-2-methylpropionic acid], the “Inhibition rate (%)” value in series [2] is given as 7.64%. For the same compound, the inhibition in vivo at 5 mg/kg in series [3] came to 54%.
For `CC(C)(C(=O)O)c1cccc(C(O)CCN2CCC(=C3c4ccc(Cl)cc4CCc4cccnc43)CC2)c1` (stereo not shown) [Example 31, 2-(3-(3-(4-(8-chloro-5,6-dihydro-11H-benzo[5,6]cyclohepta[1,2-b]pyridine-11-enyl)piperidine-1-yl)-1-hydroxypropyl)phenyl)-2-methylpropionic acid], in that order: 13.25% and 48%.
On to `COc1ccccc1OCC(O)CN1CCC(=C2c3ccc(Cl)cc3CCc3cccnc32)CC1` (stereo not shown) [Compound LHC-7, reference compound], for which the midpoint of inhibition in series [1], the IC50, lay at 0.248 µM. Besides, the “Inhibition rate (%)” value in series [2] worked out at 95.60%. Moreover, the inhibition in vivo at 5 mg/kg in series [3] turned out to be 53.2%.
Consider `CC(C)(C(=O)O)c1ccc(CCCN2CCC(=C3c4ccc(Cl)cc4CCc4cccnc43)CC2)c(Cl)c1` [Example 15, 2-(3-chloro-4-(3-(4-(8-chloro-5,6-dihydro-11H-benzo[5,6]cyclohept[1,2-b]pyridine-11-enyl)piperidin-1-yl)propyl)phenyl)-2-methylpropionic acid], for which, in series [2], the “Inhibition rate (%)” value stood at 8.42%. The inhibition in vivo at 5 mg/kg in series [3] was 52.8%.
`CC(C)(C(=O)O)c1ccc(CCCN2CCC(=C3c4ccc(Cl)cc4CCc4cccnc43)CC2)c(N)c1` [Example 6, 2-(3-Amino-4-(3-(4-(8-chloro-5,6-dihydro-11H-benzo[5,6]cyclohept[1,2-b]pyridine-11-enyl)piperidin-1-yl)propyl)phenyl)-2-methylpropionic acid]: the “Inhibition rate (%)” value in series [2] stood at 6.34%. Further, in series [3], the inhibition in vivo at 5 mg/kg came out at 53.2%.
For `CC(C)(C(=O)O)c1ccc(CCCN2CCC(=C3c4ccc(Cl)cc4CCc4cc(O)cnc43)CC2)cc1` [Example 20], in that order: 7.65% and 58%.
In the case of `CC(C)(C(=O)O)c1ccc(CCCCN2CCC(=C3c4ccc(Cl)cc4CCc4cccnc43)CC2)cc1` [Example 24], the “Inhibition rate (%)” value in series [2] is 10.32%. Moreover, the inhibition in vivo at 5 mg/kg in series [3] is 47.6%.
For `CC(C)(C(=O)O)c1ccc(CCCN2CCC(=C3c4ccc(Cl)cc4CCc4cccnc43)CC2)c(Br)c1` [Example 14, 2-(3-Bromo-4-(3-(4-(8-chloro-5,6-dihydro-11H-benzo[5,6]cyclohept[1,2-b]pyridine-11-enyl)piperidin-1-yl)propyl)phenyl)-2-methylpropionic acid], in that order: 3.78% and 42.8%.
Consider `CC(C)(C(=O)O)c1ccc(CCCN2CCC(=C3c4ccc(Cl)cc4CCc4cccnc43)CC2)c(C(F)(F)F)c1` [Example 12], for which the “Inhibition rate (%)” value in series [2] stood at 7.48%. Moreover, the inhibition in vivo at 5 mg/kg in series [3] came out at 44.6%.
Regarding `CC(C)(C(=O)O)c1ccc(CCCN2CCC(=C3c4ccccc4CC(=O)c4sccc43)CC2)cc1` [Example 22, 2-Methyl-2-(4-(3-(4-(10-oxo-9,10-dihydro-4H-benzo[4,5]cyclohepta[1,2-b]thiophene-4-alkylene)piperidin 1-yl)propyl)phenyl) propionic acid], in series [2], the “Inhibition rate (%)” value came to 18.43%. Further, the inhibition in vivo at 5 mg/kg in series [3] amounted to 63.3%.
On to `CC(C)(C(=O)O)c1ccc(CCCN2CCC(=C3c4ccc(Cl)cc4CCc4cccnc43)CC2)c([N+](=O)[O-])c1` [Example 16, 2-(4-(3-(4-(8-chloro-5,6-dihydro-11H-benzo[5,6]cyclohepta[1,2-b]pyridine-11-enyl)piperidine-1-yl)propyl)-2-nitrophenyl)-2-methylpropionic acid], for which, in series [2], the “Inhibition rate (%)” value was determined as 10.76%. Moreover, the inhibition in vivo at 5 mg/kg in series [3] was 50.8%.
For the compound `CC(C)(C(=O)O)c1cccc(C(O)CCCN2CCC(=C3c4ccc(Cl)cc4CCc4cccnc43)CC2)c1` (stereo not shown) [Example 30, 2-(3-(4-(4-(8-chloro-5,6-dihydro-11H-benzo[5,6]cyclohepta[1,2-b]pyridine-11-enyl)piperidine-1-yl)-1-hydroxybutyl)phenyl)-2-methylpropionic acid], the “Inhibition rate (%)” value in series [2] was 6.74%. The inhibition in vivo at 5 mg/kg in series [3] turned out to be 52.2%.
For the compound `CC(C)(C(=O)[O-])c1ccc(CCN2CCC(=C3c4ccc(Cl)cc4CCc4cccnc43)CC2)cc1.[Na+]` [Example 32], the 50% inhibitory concentration (IC50) in series [1] is greater than 30 µM. The “Inhibition rate (%)” value in series [2] is on record as 18.93%.
With `CC(C)(C(=O)O)c1ccc(CCCN2CCC(=C3c4ccc(Cl)cc4CCc4cccnc43)CC2)cc1C(F)(F)F` [Example 13], the “Inhibition rate (%)” value in series [2] amounted to 5.77%. The inhibition in vivo at 5 mg/kg in series [3] is 51%.
As to `CC(C)(C(=O)O)c1ccc(CCCN2CCC(=C3c4ccc(Cl)cc4CCc4cccnc43)CC2)cc1[N+](=O)[O-]` [Example 17, 2-(4-(3-(4-(8-chloro-5,6-dihydro-11H-benzo[5,6]cyclohepta[1,2-b]pyridine-11-enyl)piperidine-1-yl)propyl)-3-nitrophenyl)-2-methylpropionic acid], the “Inhibition rate (%)” value in series [2] came to 6.54%. For the same compound, the inhibition in vivo at 5 mg/kg in series [3] worked out at 49.2%.
Turning to `CC(C)(C(=O)O)c1ccc(CCCN2CCC(=C3c4ccc(Cl)cc4CCc4cccnc43)CC2)cc1F` [Example 9, 2-(4-(3-(4-(8-chloro-5,6-dihydro-11H-benzo[5,6]cyclohepta[1,2-b]pyridine-11-enyl)piperidine-1-yl)propyl)-2-fluorophenyl)-2-methylpropionic acid], the “Inhibition rate (%)” value in series [2] was 12.01%. Further, the inhibition in vivo at 5 mg/kg in series [3] came to 50.6%.
`CC(C)(C(=O)O)c1cccc(CCCN2CCC(=C3c4ccc(Cl)cc4CCc4cccnc43)CC2)c1` [Example 25, 2-(3-(3-(4-(8-chloro-5,6-dihydro-11H-benzo [5,6]cyclohepta [1,2-b]pyridine-11-enyl)piperidine-1-yl)propyl)phenyl)-2-methylpropionic acid]: the “Inhibition rate (%)” value in series [2] is 9.68%. The inhibition in vivo at 5 mg/kg in series [3] is 66.8%.
Regarding `Cc1cc(C(C)(C)C(=O)O)ccc1CCCN1CCC(=C2c3ccc(Cl)cc3CCc3cccnc32)CC1` [Example 10, 2-(4-(3-(4-(8-chloro-5,6-dihydro-11H-benzo[5,6]cyclohepta[1,2-b]pyridine-11-enyl)piperidine-1-yl)propyl)-3-methylphenyl)-2-methylpropionic acid], in series [2], the “Inhibition rate (%)” value amounted to 5.13%. Moreover, the inhibition in vivo at 5 mg/kg in series [3] was 41.2%.
As for `CC(C)(C(=O)O)c1cccc(CCCN2CCC(=C3c4ccccc4CC(O)c4sccc43)CC2)c1` (stereo not shown) [Example 27, 2-(3-(3-(4-(10-hydroxy-9,10-dihydro-4H-benzo[4,5]cyclohepta[1,2-b]thiophene-4-alkylene)piperidin-1-yl)propyl)phenyl)-2-methylpropionic acid], the “Inhibition rate (%)” value in series [2] amounted to 5.48%. Further, the inhibition in vivo at 5 mg/kg in series [3] came to 48.8%.
Regarding `CC(C)(C(=O)O)c1ccccc1CCCN1CCC(=C2c3ccc(Cl)cc3CCc3cccnc32)CC1` [Example 28, 2-(2-(3-(4-(8-chloro-5,6-dihydro-11H-benzo[5,6]cyclohepta[1,2-b]pyridine-11-enyl)piperidine-1-yl)propyl)phenyl)-2-methylpropionic acid], the “Inhibition rate (%)” value in series [2] is on record as 19.65%. The inhibition in vivo at 5 mg/kg in series [3] came to 43.8%.
Consider `CC(C)(C(=O)O)c1ccc(CCCN2CCC(=C3c4ccccc4CC(O)c4sccc43)CC2)cc1` (stereo not shown) [Example 23, 2-(4-(3-(4-(10-hydroxy-9,10-dihydro-4H-benzo[4,5]cyclohept[1,2-b]thiophen-4-alkylene)piperidin-1-yl)propyl)phenyl)-2-methylpropionic acid], for which the “Inhibition rate (%)” value in series [2] is given as 8.54%. Besides, in series [3], the inhibition in vivo at 5 mg/kg is 66.7%.
Regarding `CC(C)(C(=O)O)c1ccc(CCCN2CCC(=C3c4ccc(Cl)cc4CC(O)c4cccnc43)CC2)cc1` (stereo not shown) [Example 18], the “Inhibition rate (%)” value in series [2] stood at 12.50%. In addition, in series [3], the inhibition in vivo at 5 mg/kg turned out to be 46.6%.
For `COc1cc(C(C)(C)C(=O)O)ccc1CCCN1CCC(=C2c3ccc(Cl)cc3CCc3cccnc32)CC1` [Example 5, 2-(4-(3-(4-(8-chloro-5,6-dihydro-11H-benzo[5,6]cyclohepta[1,2-b]pyridine-11-enyl)piperidine-1-yl)propyl)-3-methoxyphenyl)-2-methylpropionic acid], in that order: 11.60% and 47.9%.
